In brackets after ≈: the same amount, converted by molar mass.
Legend:
[1] = tested on: Staph. aureus ATCC 6538p; test: MIC (Table 4); type: cell-based; conditions: 10^8 cells/ml; unit assumed
Text: (§1) | MIC Value (10^8 cells/ml)

[2] = tested on: Staph. aureus MS 27; test: MIC (Table 4); type: cell-based; conditions: 10^8 cells/ml; unit assumed
Text: as §1

[3] = tested on: Klebs. pneumoniae ATCC 10031; test: MIC (Table 4); type: cell-based; conditions: 10^8 cells/ml; unit assumed
Text: as §1

[4] = tested on: Staph. aureus 0003; test: MIC (Table 4); type: cell-based; conditions: 10^8 cells/ml; unit assumed
Text: as §1

[5] = tested on: E. Coli W3630; test: MIC (Table 4); type: cell-based; conditions: 10^8 cells/ml; unit assumed
Text: as §1

[6] = tested on: E. Coli W3630 ps 3; test: MIC (Table 4); type: cell-based; conditions: 10^8 cells/ml; unit assumed
Text: as §1

[7] = tested on: Salm enteritidis Gaertner; test: MIC (Table 4); type: cell-based; conditions: 10^8 cells/ml; unit assumed
Text: as §1

[8] = tested on: E. Coli NIHJ-JC2; test: MIC (Table 4); type: cell-based; conditions: 10^8 cells/ml; unit assumed
Text: as §1

[9] = Absorption test, oral, rats, solution in buffer pH 7 (Example 16); type: in vivo, Male Wistar rats; conditions: blood, 50 mg/kg oral, rat, average of 6, read-out: Blood Concentration of the Compound
Experimental: The absorption test of the compounds as obtained in Examples 1-11 were tested by the following method.
(§2) Male Wistar rats weighing 180-250 g were fed with only water overnight. The next day the rats were orally administered with 50 mg/kg of a test compound which was dissolved in a buffer solution having pH of 7. The concentration of the compound in blood of the tested animals (one group consisting of 6 animals) was measured 0.5, 1, 2 and 4 hours after the administration by Bioassay method by using Bacillus subtilis ATCC 6633 strain as an indicator bacteria. In the measurement, an ordinary culture medium was employed, and the preparation of the standard solution and other method were carried out in according to Japanese Antibiotical Pharmaceutical Standards. Further, the concentration of the compound in blood was also measured by high performance liquid chromatography. The blood concentration shown below was an average value of each animal group.

[10] = Blood concentration, oral, rats, suspended in CMC aqueous solution (Example 17); type: in vivo, Male Wistar rats; conditions: 50 mg/kg oral, rat; for concentration at 0.5 h / concentration at 1 h / concentration at 4 h: blood, read-out: Blood Concentration of the Compound
Experimental: as §2
The blood concentration of the compounds as obtained in Examples 12-15 and the compounds as obtained in the same manner as in Examples 3 and 12, respectively, was measured. The measurement was carried out in the same manner as Example 16 except that the test compound was suspended in a CMC aqueous solution instead of being dissolved in a buffer solution having pH of 7.

CC1=C(C(=O)O)N2C(=O)[C@@H](NC(=O)[C@H](N)c3ccccc3)[C@H]2SC1 [Cephalexin, reference compound]
MIC Value [1]: 3.1 µg/mL (≈ 8.92 µM) | MIC Value [2]: 50 µg/mL (≈ 144 µM) | MIC Value [3]: 25 µg/mL (≈ 72 µM) | MIC Value [4]: 50 µg/mL (≈ 144 µM) | MIC Value [5]: > 100 µg/mL | MIC Value [6]: > 100 µg/mL | MIC Value [7]: > 100 µg/mL | MIC Value [8]: > 100 µg/mL

Cc1nnc(SCC2=C(C(=O)O)N3C(=O)[C@@H](NC(=O)CSc4nc(C[C@H](N)C(=O)O)c[nH]4)[C@H]3SC2)s1 [Example 3, 7-β-[4-(2'-amino-2'-carboxy)ethylimidazol-2-yl-thioacetamido]-3-[2-(2-methyl-1,3,4-thiazolyl)thiomethyl]-3-cephem-4-carboxylic acid]
concentration at 0.5 h [9]: 11300 ng/mL | concentration at 1 h [9]: 12400 ng/mL | concentration at 2 h [9]: 13700 ng/mL | concentration at 4 h [9]: 9400 ng/mL

Cn1nnnc1SCC1=C(C(=O)O)N2C(=O)[C@@H](NC(=O)CSc3nc(C[C@H](NC=O)C(=O)O)c[nH]3)[C@H]2SC1 [Example 15, 7-β-[4-(2'-formamido-2'-carboxy)ethylimidazol-2-yl-thioacetamido]-3-[(1-methyl-1H-tetrazol-5-yl)thiomethyl]-3-cephem-4-carboxylic acid]
concentration at 0.5 h ([10]; 0.5 hr.): 3900 ng/mL | concentration at 1 h ([10]; 1 hr.): 2700 ng/mL | concentration at 4 h ([10]; 4 hrs.): 1700 ng/mL

COC1=C(C(=O)O)N2C(=O)[C@@H](NC(=O)CSc3nc(C[C@H](N)C(=O)O)c[nH]3)[C@H]2SC1 [Example 9, 7-β-[4-(2'-amino-2'-carboxy)ethylimidazol-2-yl-thioacetamido]-3-methoxy-3-cephem-4-carboxylic acid]
concentration at 0.5 h [9]: 8400 ng/mL | concentration at 1 h [9]: 6700 ng/mL | concentration at 2 h [9]: 3400 ng/mL | concentration at 4 h [9]: 1100 ng/mL

Cn1nnnc1SCC1=C(C(=O)O)N2C(=O)[C@@H](NC(=O)CSc3nc(C[C@H](N)C(=O)O)c[nH]3)[C@H]2SC1 [Example 2, 7-β-[4-(2'-amino-2'-carboxy)ethylimidazol-2-yl-thioacetamido]-3-[(1-methyl-1H-tetrazol-5-yl)thiomethyl]-3-cephem-4-carboxylic acid]
concentration at 0.5 h [9]: 4700 ng/mL | concentration at 1 h [9]: 2900 ng/mL | concentration at 2 h [9]: 2000 ng/mL | concentration at 4 h [9]: 1000 ng/mL

N[C@@H](Cc1c[nH]c(SCC(=O)N[C@@H]2C(=O)N3C(C(=O)O)=C(CSc4nc[nH]n4)CS[C@H]23)n1)C(=O)O [Example 4, 7-β-[4-(2'-amino-2'-carboxy)ethylimidazol-2-yl-thioacetamido]-3-[(1,3,4-triazole)thiomethyl]-3-cephem-4-carboxylic acid]
concentration at 0.5 h [9]: 2100 ng/mL | concentration at 1 h [9]: 1200 ng/mL | concentration at 2 h [9]: 400 ng/mL | concentration at 4 h [9]: 100 ng/mL

N[C@@H](Cc1c[nH]c(SCC(=O)N[C@@H]2C(=O)N3C(C(=O)O)=C(CSc4cnn[nH]4)CS[C@H]23)n1)C(=O)O [Example 5, 7-β-[4-(2'-amino-2'-carboxy)ethylimidazol-2-yl-thioacetamido]-3-[(1,2,3-triazole)thiomethyl]-3-cephem-4-carboxylic acid]
concentration at 0.5 h [9]: 12400 ng/mL | concentration at 1 h [9]: 13700 ng/mL | concentration at 2 h [9]: 14300 ng/mL | concentration at 4 h [9]: 10200 ng/mL

Cn1nncc1SCC1=C(C(=O)O)N2C(=O)[C@@H](NC(=O)CSc3nc(C[C@H](N)C(=O)O)c[nH]3)[C@H]2SC1 [Example 7, 7-β-[4-(2'-amino-2'-carboxy)ethylimidazol-2-yl-thioacetamido]-3-[(1-methyl-1H-1,2,3-triazole)thiomethyl]-3-cephem-4-carboxylic acid]
concentration at 0.5 h [9]: 4200 ng/mL | concentration at 1 h [9]: 2100 ng/mL | concentration at 2 h [9]: 700 ng/mL | concentration at 4 h [9]: 400 ng/mL

Cc1nnc(SCC2=C(C(=O)O)N3C(=O)[C@@H](NC(=O)CSc4nc(C[C@H](N)C(=O)O)c[nH]4)[C@H]3SC2)s1 [drawing 13]
MIC Value [1]: 1.6 µg/mL (≈ 2.8 µM) | MIC Value [2]: 25 µg/mL (≈ 43.7 µM) | MIC Value [3]: 25 µg/mL (≈ 43.7 µM) | MIC Value [4]: 25 µg/mL (≈ 43.7 µM) | MIC Value [5]: 50 µg/mL (≈ 87.5 µM) | MIC Value [6]: 50 µg/mL (≈ 87.5 µM) | MIC Value [7]: 50 µg/mL (≈ 87.5 µM) | MIC Value [8]: 50 µg/mL (≈ 87.5 µM)

CC(=O)NC(Cc1c[nH]c(SCC(=O)NC2C(=O)N3C(C(=O)O)=C(CSc4nnc(C)s4)CSC23)n1)C(=O)O (stereo not drawn) [(18), 7-β-[4-(2'-methylamido-2'-carboxy)ethylimidazol-2-yl-thioacetamido]-3-[2-(2-methyl-1,3,4-thiazolyl)thiomethyl]-3-cephem-4-carboxylic acid]
Blood Concentration of the Compound ([10]; 0.5 hr.): 10300 ng/mL | Blood Concentration of the Compound ([10]; 1 hr.): 11200 ng/mL | Blood Concentration of the Compound ([10]; 4 hrs.): 4900 ng/mL

Cn1nnnc1SCC1=C(C(=O)O)N2C(=O)[C@@H](NC(=O)CSc3nc(C[C@H](N)C(=O)O)c[nH]3)[C@H]2SC1 [drawing 11]
MIC Value [1]: 1.6 µg/mL (≈ 2.88 µM) | MIC Value [2]: 12.5 µg/mL (≈ 22.5 µM) | MIC Value [3]: 12.5 µg/mL (≈ 22.5 µM) | MIC Value [4]: 12.5 µg/mL (≈ 22.5 µM) | MIC Value [5]: 25 µg/mL (≈ 45 µM) | MIC Value [6]: 25 µg/mL (≈ 45 µM) | MIC Value [7]: 12.5 µg/mL (≈ 22.5 µM) | MIC Value [8]: 25 µg/mL (≈ 45 µM)

CC1=C(C(=O)O)N2C(=O)[C@@H](NC(=O)CSc3nc(C[C@H](N)C(=O)O)c[nH]3)[C@H]2SC1 [Example 8, 7-β-[4-(2'-amino-2'-carboxy)ethylimidazol-2-yl-thioacetamido]-3-methyl-3-cephem-4-carboxylic acid]
concentration at 0.5 h [9]: 14900 ng/mL | concentration at 1 h [9]: 11300 ng/mL | concentration at 2 h [9]: 7200 ng/mL | concentration at 4 h [9]: 4000 ng/mL

N[C@@H](Cc1c[nH]c(SCC(=O)N[C@@H]2C(=O)N3C(C(=O)O)=C(Cl)CS[C@H]23)n1)C(=O)O [Example 10, 7-β-[4-(2'-amino-2'-carboxy)ethylimidazol-2-yl-thioacetamido]-3-chloro-3-cephem-4-carboxylic acid]
concentration at 0.5 h [9]: 7400 ng/mL | concentration at 1 h [9]: 5900 ng/mL | concentration at 2 h [9]: 3000 ng/mL | concentration at 4 h [9]: 1800 ng/mL

N[C@@H](Cc1c[nH]c(SCC(=O)N[C@@H]2C(=O)N3C(C(=O)O)=CCS[C@H]23)n1)C(=O)O [Example 11, 7-β-[4-(2'-amino-2'-carboxy)ethylimidazol-2-yl-thioacetamido]-3-cephem-4-carboxylic acid]
concentration at 0.5 h [9]: 8300 ng/mL | concentration at 1 h [9]: 7400 ng/mL | concentration at 2 h [9]: 4200 ng/mL | concentration at 4 h [9]: 1800 ng/mL

CO[C@@]1(NC(=O)CSc2nc(C[C@H](N)C(=O)O)c[nH]2)C(=O)N2C(C(=O)O)=C(CSc3nnnn3C)CS[C@@H]21 [Example 13, 7-β-[4-(2'-amino-2'-carboxy)ethylimidazol-2-yl-thioacetamido]-7α-methoxy-3-[(1-methyl-1H-tetrazol-5-yl)thiomethyl]-3-cephem-4-carboxylic acid]
concentration at 0.5 h ([10]; 0.5 hr.): 4600 ng/mL | concentration at 1 h ([10]; 1 hr.): 3100 ng/mL | concentration at 4 h ([10]; 4 hrs.): 1100 ng/mL

7-β-[4-(2'-amino-2'-carboxy)ethylimidazol-2-yl-thioacetamido]-7α-methoxy-3-[(1-methyl-1H-tetrazol-5-yl) thiomethyl]-3-cephem-4-carboxylic acid ditert-butylcarboxymethyl ester [(19)]
Blood Concentration of the Compound ([10]; 0.5 hr.): 7200 ng/mL | Blood Concentration of the Compound ([10]; 1 hr.): 3900 ng/mL | Blood Concentration of the Compound ([10]; 4 hrs.): 1600 ng/mL

CO[C@@]1(NC(=O)CSc2nc(C[C@H](N)C(=O)OCOC(C)=O)c[nH]2)C(=O)N2C(C(=O)OCOC(C)=O)=C(CSc3nnnn3C)CS[C@@H]21 [Example 14, 7-β-[4-(2'-amino-2'-carboxy)ethylimidazol-2-yl-thioacetamido]-7α-methoxy-3-[(1-methyl-1H-tetrazol-5-yl)thiomethyl]-3-cephem-4-carboxylic acid diacetoxymethyl ester]
concentration at 0.5 h ([10]; 0.5 hr.): 6800 ng/mL | concentration at 1 h ([10]; 1 hr.): 4100 ng/mL | concentration at 4 h ([10]; 4 hrs.): 2300 ng/mL

Cc1nnc(SCC2=C(C(=O)O)N3C(=O)[C@@H](NC(=O)CSc4nc(C[C@H](N)C(=O)O)c[nH]4)[C@H]3SC2)o1 [Example 6, 7-β-[4-(2'-amino-2'-carboxy)ethylimidazol-2-yl-thioacetamido]-3-[(2-methyl-1,3,4-oxadiazole)thiomethyl]-3-cephem-4-carboxylic acid]
concentration at 0.5 h [9]: 8000 ng/mL | concentration at 1 h [9]: 5300 ng/mL | concentration at 2 h [9]: 3600 ng/mL | concentration at 4 h [9]: 1000 ng/mL

CO[C@@]1(NC(=O)CSc2nc(C[C@H](N)C(=O)O)c[nH]2)C(=O)N2C(C(=O)O)=C(COC(C)=O)CS[C@@H]21 [Example 12, 7-β-[4-(2'-amino-2'-carboxy)ethylimidazol-2-yl-thioacetamido]-7α-methoxy-3-acetoxymethyl-3-cephem-4-carboxylic acid]
concentration at 0.5 h ([10]; 0.5 hr.): 3900 ng/mL | concentration at 1 h ([10]; 1 hr.): 1700 ng/mL | concentration at 4 h ([10]; 4 hrs.): 400 ng/mL
